As usually defined, the bioavailability is dose-corrected exposure relative to a reference, in per cent. A low value points to poor availability. As a reminder, the Cmax is the highest concentration seen after dosing. A word on the AUC: it is the area under the concentration-time curve, a measure of exposure.

Experimental findings from ChEMBL document CHEMBL1135998, “Identification of orally active, potent, and selective 4-piperazinylquinazolines as antagonists of the platelet-derived growth factor receptor tyrosine kinase family” (J Med Chem, 2002) are described below.

The nature of data set [1]: in vivo. The following applies: dog, po, 5 mg/kg.
Data set [2] in a line: in vivo. The following applies: primates, po, 5 mg/kg.
Data set [3] can be described thus: in vivo. The following applies: simiiformes, po, 5 mg/kg.
The nature of data set [4]: in vivo. The following applies: simiiformes, po, 5 mg/kg. The source holds these as a separate data set.
A short description of data set [5]: in vivo. The following applies: dog, po, 5 mg/kg. The source holds these as a separate data set.
Data set [6] can be described thus: in vivo.
A short description of data set [7]: in vivo. The following applies: rat, po, 5 mg/kg.
Data set [8] can be described thus: in vivo. The following applies: dog, po, 5 mg/kg. The source holds these as a separate data set.
Data set [9] is described as follows: in vivo. The following applies: rat, po, 5 mg/kg. The source holds these as a separate data set.
A short description of data set [10]: in vivo. The following applies: dog, po, 7.5 mg/kg.
The nature of data set [11]: in vivo. The following applies: dog, po, 7.5 mg/kg. The source holds these as a separate data set.
A short description of data set [12]: in vivo. The following applies: rat, po, 30 mg/kg.
Data set [13] can be described thus: in vivo. The following applies: rat, po, 30 mg/kg. The source holds these as a separate data set.
A short description of data set [14]: in vivo. The following applies: rat, po, 30 mg/kg. The source holds these as a separate data set.
A short description of data set [15]: in vivo. The following applies: dog, po, 7.5 mg/kg. The source holds these as a separate data set.
A short description of data set [16]: in vivo. The following applies: primates, po, 5 mg/kg. This is another data set of the same source.
Data set [17] in a line: in vivo. The following applies: primates, po, 10 mg/kg.
Data set [18] can be described thus: in vivo. The following applies: simiiformes, po, 10 mg/kg.
A short description of data set [19]: in vivo. The following applies: rat, plasma, po, 30 mg/kg.
A short description of data set [20]: in vivo. The following applies: rat, po, 30 mg/kg. The source holds these as a separate data set.
A short description of data set [21]: in vivo. The following applies: simiiformes, plasma, po, 10 mg/kg.

For the compound `COc1cc2c(N3CCN(C(=O)Nc4ccc(OC(C)C)cc4)CC3)ncnc2cc1OCCCN1CCOCC1`, the bioavailability worked out at 63.3% in data set [1], 18.9% in [2] and 20.8% in data set [9]. The Cmax came out at 135 ng/mL in data set [3], 183 ng/mL in data set [5] and 49.2 ng/mL in [6]. In addition, the AUC was determined as 663 ng·h/mL in [4], 176 ng·h/mL in data set [7] and 1390 ng·h/mL in data set [8].
Regarding `COc1cc2c(N3CCN(C(=O)Nc4ccc(OC(C)C)cc4)CC3)ncnc2cc1OCCCN1CCCCC1` [TANDUTINIB], the Cmax in data set [10] came out at 481 ng/mL; in [14], 256 ng/mL; in data set [6], 317 ng/mL. For the same compound, the AUC in data set [11] came out at 2690 ng·h/mL; in data set [13] it was 1700 ng·h/mL; in data set [4] it was 2920 ng·h/mL. Besides, the bioavailability in [12] was 23.8%; in data set [15] it was 97.6%; in [16] it was 48.9%.
Take `COc1cc2c(N3CCN(C(=O)Nc4ccc(OC(C)C)cc4)CC3)ncnc2cc1OCCN1CCCCC1`: the bioavailability in [17] worked out at 38.8%; in data set [1] it was 13.5%. The Cmax in [18] came to 386 ng/mL; in [5] it was 43 ng/mL; in data set [20] it was 414 ng/mL. The exposure (AUC) in data set [19] was found to be 4410 ng·h/mL; in data set [8] it was 387 ng·h/mL; in [21], 3080 ng·h/mL.
